Experimental data: patent publication US9918956B2 (SICHUAN JIUZHANG BIOLOGICAL SCIENCE AND TECHNOLOGY CO., LTD, priority 2013, dated 2018)

Tests used:
[1] = hygroscopicity of chlorogenic acid crude drug; type: physicochemical
stability of crude drugs = type: physicochemical; details: light and heat
[2] = adjuvant compatibility, high temperature (60° C.) test; type: physicochemical
[3] = adjuvant compatibility, bright light exposure test; type: physicochemical; details: light 4500 lx ± 500 lx
Description: Samples were taken and examined on 0, 5th, 10th days, respectively, and results were depicted in Table 7.

[4] = pH of chlorogenic acid solutions
[5] = adjuvant compatibility, high humidity (92.5% relative humidity) test; type: physicochemical; details: 25° C.
[6] = pH-degradation reaction rate of chlorogenic acid in buffer solutions
[7] = from pH-degradation reaction rate curve

Compound: O=C(/C=C/c1ccc(O)c(O)c1)O[C@@H]1C[C@](O)(C(=O)O)C[C@@H](O)[C@H]1O [chlorogenic acid]
- hygroscopicity [1]: had hygroscopicity
- stability of crude drug (stability of crude drugs): sensitive to light and heat
- Content ([2]; day 0): 99.51%
- Description ([2]; day 0): Off-white
- Loss on drying ([2]; day 0): 2.31%
- Related substances Others 2 ([2]; day 0): 0.154%
- Related substances Others 3 ([2]; day 0): 0.211%
- Related substances Others 4 ([2]; day 0): 0.035%
- Related substances Others Total ([2]; day 0): 0.504%
- Content ([2]; day 5): 99.36%
- Description ([2]; day 5): Dark brown
- Loss on drying ([2]; day 5): 2.25%
- Related substances Others 2 ([2]; day 5): 0.160%
- Related substances Others 3 ([2]; day 5): 0.294%
- Related substances Others 4 ([2]; day 5): 0.039%
- Related substances Others Total ([2]; day 5): 0.627%
- Content ([2]; day 10): 99.31%
- Description ([2]; day 10): Dark brown
- Loss on drying ([2]; day 10): 2.13%
- Related substances Others 1 ([2]; day 10): 0.143%
- Related substances Others 2 ([2]; day 10): 0.175%
- Related substances Others 3 ([2]; day 10): 0.306%
- Related substances Others 4 ([2]; day 10): 0.047%
- Related substances Others Total ([2]; day 10): 0.670%
- Content ([3]; day 0): 99.51%
- Description ([3]; day 0): Off white
- Loss on drying ([3]; day 0): 2.31%
- Related substances Others 2 ([3]; day 0): 0.154%
- Related substances Others 3 ([3]; day 0): 0.211%
- Related substances Others 4 ([3]; day 0): 0.035%
- Related substances Others Total ([3]; day 0): 0.504%
- Content ([3]; day 5): 99.15%
- Description ([3]; day 5): Dark brown
- Loss on drying ([3]; day 5): 2.38%
- Related substances Others 2 ([3]; day 5): 0.483%
- Related substances Others 3 ([3]; day 5): 0.223%
- Related substances Others 4 ([3]; day 5): 0.037%
- Related substances Others Total ([3]; day 5): 0.871%
- Content ([3]; day 10): 99.07%
- Description ([3]; day 10): Dark brown
- Loss on drying ([3]; day 10): 2.54%
- Related substances Others 2 ([3]; day 10): 0.498%
- Related substances Others 4 ([3]; day 10): 0.044%
- pH value of solution ([4]; […] solution before freeze-drying): about 3.0
- pH value of solution ([4]; concentration 0.03%): about 3.5
- Content ([5]; day 0): 99.51%
- Description ([5]; day 0): Off white
- Loss on drying ([5]; day 0): 2.31%
- Related substances Others 2 ([5]; day 0): 0.154%
- Related substances Others 3 ([5]; day 0): 0.211%
- Related substances Others 4 ([5]; day 0): 0.035%
- Related substances Others Total ([5]; day 0): 0.504%
- Content ([5]; day 5): 99.47%
- Description ([5]; day 5): Pale yellow
- Loss on drying ([5]; day 5): 4.22%
- Related substances Others 2 ([5]; day 5): 0.157%
- Related substances Others 3 ([5]; day 5): 0.203%
- Related substances Others 4 ([5]; day 5): 0.036%
- Related substances Others Total ([5]; day 5): 0.518%
- Content ([5]; day 10): 99.43%
- Description ([5]; day 10): Pale yellow
- Loss on drying ([5]; day 10): 4.75%
- Related substances Others 2 ([5]; day 10): 0.174%
- Related substances Others 3 ([5]; day 10): 0.221%
- Related substances Others 4 ([5]; day 10): 0.041%
- Related substances Others Total ([5]; day 10): 0.570%
- Concentration of chlorogenic acid ([6]; buffer pH 1.5, 0 h): 108.07 µg/mL
- Concentration of chlorogenic acid ([6]; buffer pH 1.5, 3 h): 97.95 µg/mL
- Concentration of chlorogenic acid ([6]; buffer pH 1.5, 7 h): 92.20 µg/mL
- Concentration of chlorogenic acid ([6]; buffer pH 1.5, 11 h): 78.65 µg/mL
- Concentration of chlorogenic acid ([6]; buffer pH 1.5, 17 h): 76.80 µg/mL
- Concentration of chlorogenic acid ([6]; buffer pH 1.5, 22 h): 68.79 µg/mL
- Concentration of chlorogenic acid ([6]; buffer pH 2.0, 0 h): 108.42 µg/mL
- Concentration of chlorogenic acid ([6]; buffer pH 2.0, 3 h): 98.91 µg/mL
- Concentration of chlorogenic acid ([6]; buffer pH 2.0, 7 h): 97.79 µg/mL
- Concentration of chlorogenic acid ([6]; buffer pH 2.0, 11 h): 99.67 µg/mL
- Concentration of chlorogenic acid ([6]; buffer pH 2.0, 17 h): 90.77 µg/mL
- Concentration of chlorogenic acid ([6]; buffer pH 2.0, 22 h): 88.26 µg/mL
- Concentration of chlorogenic acid ([6]; buffer pH 3.0, 0 h): 107.51 µg/mL
- Concentration of chlorogenic acid ([6]; buffer pH 3.0, 3 h): 103.02 µg/mL
- Concentration of chlorogenic acid ([6]; buffer pH 3.0, 7 h): 101.91 µg/mL
- Concentration of chlorogenic acid ([6]; buffer pH 3.0, 11 h): 102.01 µg/mL
- Concentration of chlorogenic acid ([6]; buffer pH 3.0, 17 h): 96.77 µg/mL
- Concentration of chlorogenic acid ([6]; buffer pH 3.0, 22 h): 95.18 µg/mL
- Concentration of chlorogenic acid ([6]; buffer pH 4.0, 0 h): 106.38 µg/mL
- Concentration of chlorogenic acid ([6]; buffer pH 4.0, 7 h): 95.78 µg/mL
- Concentration of chlorogenic acid ([6]; buffer pH 4.0, 11 h): 91.29 µg/mL
- Concentration of chlorogenic acid ([6]; buffer pH 4.0, 17 h): 85.09 µg/mL
- Concentration of chlorogenic acid ([6]; buffer pH 4.0, 22 h): 80.21 µg/mL
- Concentration of chlorogenic acid ([6]; buffer pH 5.1, 0 h): 105.96 µg/mL
- Concentration of chlorogenic acid ([6]; buffer pH 5.1, 3 h): 97.99 µg/mL
- Concentration of chlorogenic acid ([6]; buffer pH 5.1, 7 h): 88.87 µg/mL
- Concentration of chlorogenic acid ([6]; buffer pH 5.1, 11 h): 81.70 µg/mL
- Concentration of chlorogenic acid ([6]; buffer pH 5.1, 17 h): 66.59 µg/mL
- Concentration of chlorogenic acid ([6]; buffer pH 5.1, 22 h): 55.83 µg/mL
- Concentration of chlorogenic acid ([6]; buffer pH 6.2, 0 h): 105.67 µg/mL
- Concentration of chlorogenic acid ([6]; buffer pH 6.2, 3 h): 67.91 µg/mL
- Concentration of chlorogenic acid ([6]; buffer pH 6.2, 7 h): 43.91 µg/mL
- Concentration of chlorogenic acid ([6]; buffer pH 6.2, 11 h): 33.46 µg/mL
- Concentration of chlorogenic acid ([6]; buffer pH 6.2, 17 h): 22.91 µg/mL
- Concentration of chlorogenic acid ([6]; buffer pH 6.2, 22 h): 18.48 µg/mL
- pH value of most stable solution [6, 7]: 3
- pH values at which aqueous solutions were more stable [6, 7]: 2-4
- lgk ([6]; pH 1.5): −1.7036
- constants of reaction rate k ([6]; pH 1.5, first order degradation): 0.0198
- lgk ([6]; pH 2.0): −2.0947
- constants of reaction rate k ([6]; pH 2.0, first order degradation): 0.0080
- lgk ([6]; pH 3.0): −2.2931
- constants of reaction rate k ([6]; pH 3.0, first order degradation): 0.0051
- lgk ([6]; pH 4.0): −1.9027
- lgk ([6]; pH 5.1): −1.5412
- constants of reaction rate k ([6]; pH 5.1, first order degradation): 0.0288
- lgk ([6]; pH 6.2): −1.1144
- constants of reaction rate k ([6]; pH 6.2, first order degradation): 0.0768
